In US8951997B2, “Substituted isoquinoline derivative” (D. Western Therapeutics Institute, Inc., priority 2009, dated 2015):
Counter-ions that a name gives are not always drawn.

What follows are molecules tested on rabbits (New Zealand White) (assay: Ocular hypotensive effect in rabbits). Conditions: Oryctolagus cuniculus, topical, 0.04 mL dropped to one eye, vehicle to contralateral eye, test compound solution concentration 10 (W/V), read-out: Maximum ocular hypotensive rate.
Type: in vivo, rabbit
Procedure: The compound of the present invention was administered to rabbits (New Zealand White, sex: male, 3 to 7 per group) and evaluated for its ocular hypotensive effect.
Each test compound was dissolved in a vehicle (1.04 g of sodium dihydrogen phosphate dihydrate and 0.5 g of sodium chloride dissolved in purified water and then adjusted to pH 7.0 with sodium hydroxide to make the total amount to 100 mL) to prepare a test compound solution with a concentration of 10 (W/V).
The intraocular pressures of the rabbits were measured using Tiolat TonoVet handheld tonometer immediately before administration of test compound. The test compound solution and the vehicle were dropped at a volume of 0.04 mL to one eye and the contralateral eye, respectively, and the intraocular pressures were measured over time in the same way as above. The rate of the intraocular pressure of the eye receiving the test compound solution to that of the eye receiving the vehicle was calculated as an ocular hypotensive rate.

`O=S(=O)(c1ccc2cnccc2c1)N1CCOCC1` [Example 9, 6-(morpholin-1-ylsulfonyl)isoquinoline hydrochloride] and `O=S(=O)(c1ccc2cnccc2c1)N1CCNCC1` [Example 1, 6-(piperazin-1-ylsulfonyl)isoquinoline dihydrochloride] cannot be ordered by inhibition in vivo at 10 %: 5 to 15% for the first, ≥ 15% for the second.

`O=S(=O)(c1ccc2cnccc2c1)N1CCCNCC1` [Example 3, 6-(1,4-diazepan-1-ylsulfonyl)isoquinoline dihydrochloride] and `C[C@@H]1CCN(S(=O)(=O)c2ccc3cnccc3c2)CCNC1` [Example 30, (R)-6-(6-methyl-1,4-diazocan-1-ylsulfonyl)isoquinoline dihydrochloride] cannot be ordered by inhibition in vivo at 10 %: ≥ 15% for the first, ≥ 15% for the second.

`CC[C@@H]1CNCCCN1S(=O)(=O)c1ccc2cnccc2c1` [Example 19, (R)-6-(2-ethyl-1,4-diazepan-1-ylsulfonyl)isoquinoline dihydrochloride] and `CC[C@@H]1CNCCCCN1S(=O)(=O)c1ccc2cnccc2c1` [Example 20, (R)-6-(2-ethyl-1,4-diazocan-1-ylsulfonyl)isoquinoline dihydrochloride] cannot be ordered by inhibition in vivo at 10 %: ≥ 15% for the first, ≥ 15% for the second.

`O=S(=O)(c1ccc2cnccc2c1Br)N1CCCNCC1` [Example 5, 5-bromo-6-(1,4-diazepan-1-ylsulfonyl)isoquinoline dihydrochloride] and `C[C@@H]1CNCCCCN1S(=O)(=O)c1ccc2cnccc2c1[N+](=O)[O-]` [Example 39, (R)-6-(2-methyl-1,4-diazocan-1-ylsulfonyl)-5-nitroisoquinoline dihydrochloride] cannot be ordered by inhibition in vivo at 10 %: ≥ 15% for the first, ≥ 15% for the second.

`C[C@H]1CNCCN1S(=O)(=O)c1ccc2cnccc2c1` [Example 13, (S)-6-(2-methylpiperazin-1-ylsulfonyl)isoquinoline dihydrochloride] and `C[C@@H]1CNCCNCCN1S(=O)(=O)c1ccc2cnccc2c1` [Example 44, (R)-6-(2-methyl-1,4,7-triazonan-1-ylsulfonyl)isoquinoline trihydrochloride] cannot be ordered by inhibition in vivo at 10 %: ≥ 15% for the first, ≥ 15% for the second.

`O=S(=O)(c1ccc2cnccc2c1)N1C[C@@H]2C[C@H]1CN2` [Example 7, 6-{(1S,4S)-2,5-diazabicyclo[2.2.1]heptan-2-ylsulfonyl}isoquinoline dihydrochloride] and `C[C@@H]1CNC[C@@H](C)N1S(=O)(=O)c1ccc2cnccc2c1` [Example 40, (2R,6R)-6-(2,6-dimethylpiperazin-1-ylsulfonyl)isoquinoline dihydrochloride] cannot be ordered by inhibition in vivo at 10 %: ≥ 15% for the first, ≥ 15% for the second.

`C[C@@H]1CCNC[C@H](C)N1S(=O)(=O)c1ccc2cnccc2c1` [Example 36, (2S,7R)-6-(2,7-dimethyl-1,4-diazepan-1-ylsulfonyl)isoquinoline dihydrochloride] and `CC1CCNCCN1S(=O)(=O)c1ccc2cnccc2c1` (stereo not shown) [Example 17, 6-(7-methyl-1,4-diazepan-1-ylsulfonyl)isoquinoline dihydrochloride] cannot be ordered by inhibition in vivo at 10 %: ≥ 15% for the first, ≥ 15% for the second.

`N[C@@H]1CCN(S(=O)(=O)c2ccc3cnccc3c2)C1` [Example 2, (R)-6-(3-aminopyrrolidin-1-ylsulfonyl)isoquinoline dihydrochloride] and `CN[C@H]1CCN(S(=O)(=O)c2ccc3cnccc3c2)C1` [Example 10, (S)-6-{3-(N-methylamino)pyrrolidin-1-ylsulfonyl}isoquinoline dihydrochloride] cannot be ordered by inhibition in vivo at 10 %: ≥ 15% for the first, 5 to 15% for the second.

`C[C@H]1CNCCCCCN1S(=O)(=O)c1ccc2cnccc2c1` [Example 28, (S)-6-(2-methyl-1,4-diazonan-1-ylsulfonyl)isoquinoline dihydrochloride] and `C[C@@H]1CCNCCCN1S(=O)(=O)c1ccc2cnccc2c1` [Example 38, (R)-6-(2-methyl-1,5-diazocan-1-ylsulfonyl)isoquinoline dihydrochloride] cannot be ordered by inhibition in vivo at 10 %: ≥ 15% for the first, ≥ 15% for the second.

In the case of `CC1CN(S(=O)(=O)c2ccc3cnccc3c2)CCCN1` (stereo not shown) [Example 16, 6-(3-methyl-1,4-diazepan-1-ylsulfonyl)isoquinoline dihydrochloride], the inhibition in vivo at 10 % is reported as ≥ 15%.
